The values below come from patent US20080063628A1, “METHODS TO PROMOTE CELL DIFFERENTIATION” (priority 2006, published 2008).

The test system of the test is Panc-1 cells. The experiment in a line: Trichostatin A 48 h treatment, gene expression by Real-Time PCR (Example 1). The test is classed as cell-based, human. The conditions noted are these: for GAPDH gene expression / HNF-3 beta gene expression / Insulin gene expression / PDX-1 gene expression / Sox17 gene expression / glucagon gene expression: 48 hours. On the procedure:
Neonatal fibroblasts, also designated Hs27, were derived from human foreskins and obtained from the American Type Culture Collection (ATCC). Panc-1 cells are a transformed cell line derived from a pancreatic epitheloid carcinoma of ductal origin, also obtained from ATCC.
Fibroblasts or Panc-1 cells were seeded into a 6-well tissue culture plate at a density of 50,000 cells/cm^2. Both cell types were cultured in medium containing 10% FBS and DMEM under standard cell culture conditions (37° C., 5% CO2). After reaching confluence (2-3 days), trichostatin A diluted in dimethyl sulfoxide (DMSO) and medium was added at either 2.5 μM or 5 μM to the cultures. Parallel cultures were treated with an equivalent concentration of DMSO as a vehicle control.
RNA samples were obtained from the treated cultures 48 hours after the addition of trichostatin A or DMSO. The culture medium was removed, the cells were washed with phosphate buffered saline (PBS), and RLT Lysis buffer containing β-mercaptoethanol (Qiagen) was added. The samples were homogenized using Qiashredder columns (Qiagen), and RNA was purified using the RNeasy Mini Kit (Qiagen). RNA quantity and quality was determined using a spectrophotometer, and cDNA was made using the iScript cDNA synthesis kit (BioRad).
The expression levels of Sox17, HNF-3 beta, Pdx-1, insulin, and glucagon were determined by Real-Time PCR (RT-PCR), as described in Example 15. Samples of 20 ng cDNA were used in each reaction. RT-PCR reactions were performed on the Applied Biosystems 7500, and data was analyzed using the accompanying software. Human pancreas cDNA was included as a positive control. Results were normalized against GAPDH expression levels.
Real-time PCR amplifcation and quantitative analysis. Unless otherwise stated, all reagents were purchased from Applied Biosystems. Real-time PCR reactions were performed using the ABI PRISM™ 7500 Sequence Detection System. TAQMAN™ FAST UNIVERSAL PCR MASTER MIX™ (ABI, CA) was used with 20 ng of reverse transcribed RNA in a total reaction volume of 20 μl. Each cDNA sample was run in duplicate to allow correction of pipetting errors. Primers and FAM-labeled TAQMAN™ probes were used at concentrations of 200 nM. The level of expression for each target gene was normalized using the pre-developed Applied Biosystem's human glyceraldehyde-3-phosphate dehydrogenase (GAPDH) endogenous control kit. Primers and probes were designed using either ABI PRISM PRIMER EXPRESS™ software or a pre-developed ABI gene analysis kit. For each gene, either one of the primers or the probe were designed to be exon-boundary spanning. This eliminated the possibility of the primers/probe binding to any genomic DNA present. The primer and probe sets are listed as follows: Pdx-1 (Hs00426216), Insulin (Hs00355773), glucagon (Hs00174967), and FoxA2 (HNF 3-beta) (Hs00232764). The remaining primers were designed using the PRIMERS program (ABI, CA). After an initial 95° C. incubation for 20 sec, samples were cycled 40 times in two stages: a denaturation step at 95° C. for 3 sec, followed by an annealing/extension step at 60° C. for 30 sec.
For each primer/probe set, a cycle time value was determined as the cycle number at which the fluorescence intensity of the PCR reaction reached a specific value in the middle of the exponential region of amplification. An increase in expression of a gene corresponded to a decrease in the number of cycles required for the fluorescence intensity to reach this value.
Background: Quantitative PCR measures a nucleic acid by following its amplification.

Setting [1] is: Panc-1 cells treated for 48 hours.

On to `CC(/C=C/C(=O)NO)=C\[C@@H](C)C(=O)c1ccc(N(C)C)cc1` [trichostatin A], for which, for the setting “2.5 μM”, the GAPDH gene expression entry was “+++ (detectable at less than 35 cycles by RT-PCR with SE less than 0.9)”, the HNF-3 beta gene expression result is “+++ (detectable at less than 35 cycles by RT-PCR with SE less than 0.9)”, the Insulin gene expression result was “+ (detectable at greater than 35–40 cycles by RT-PCR)” and the PDX-1 gene expression entry is on record as “+++ (detectable at less than 35 cycles by RT-PCR with SE less than 0.9)”. In addition, under “2.5 μM”, the Sox17 gene expression result is reported as “+++ (detectable at less than 35 cycles by RT-PCR with SE less than 0.9)” and the glucagon gene expression entry is given as “+++ (detectable at less than 35 cycles by RT-PCR with SE less than 0.9)”. For the same compound, where the note is “5.0 μM”, the GAPDH gene expression result is “+++ (detectable at less than 35 cycles by RT-PCR with SE less than 0.9)”, the HNF-3 beta gene expression result is on record as “+++ (detectable at less than 35 cycles by RT-PCR with SE less than 0.9)”, the Insulin gene expression result is “+ (detectable at greater than 35–40 cycles by RT-PCR)” and the PDX-1 gene expression entry is given as “+++ (detectable at less than 35 cycles by RT-PCR with SE less than 0.9)”. Where the note is “5.0 μM”, the Sox17 gene expression entry is on record as “+++ (detectable at less than 35 cycles by RT-PCR with SE less than 0.9)” and the glucagon gene expression result is listed as “+++ (detectable at less than 35 cycles by RT-PCR with SE less than 0.9)”. For the same compound, under setting [1], the “Pdx-1 expression with 5.0 μm versus 2.5 μM trichostatin A” value is 11 times higher, the “Sox-17 expression with 5.0 μm versus 2.5 μM trichostatin A” value turned out to be 60 times higher and the “glucagon expression with 5.0 μm versus 2.5 μM trichostatin A” value is reported as 5 times higher.
